Like-named read-outs stand apart in the source and are kept apart here.
Legend:
[1] = test system: morning glory (variety: murasaki); assay: Activity in increasing flower budding of morning glory (spray, dark treatment, flower buds counted on the 14th day); format: in vivo
Description: Seeds of morning glory (variety: murasaki) (9 g) were subjected to concentrated sulfuric acid treatment for 20 minutes, and then allowed to stand under water flow overnight.
Subsequently, the seeds were placed on wet sea sand such that the emerging sites of the roots were directed upward for 24 hours, to thereby produce roots. The seeds having roots were planted in sea sand at a position 1 cm below the surface of the sand, and then cultured under continuous light irradiation (for about five days).
The entire plant bodies of the morning glory having leaves produced through this culture were transferred into a culture solution KNO3(250 mg), NH4NO3 (250 mg), KH2PO4 (250 mg), MgSO4.7H2O (250 mg), MnSO4.4H2O (1 mg), Fe-citrate n-hydrate (6 mg), H3BO3 (2 mg), CuSO4.5H2O (0.1 mg), ZeSO4.7H2O (0.2 mg), Na2MoO4.2H2O (0.2 mg), Ca(H2PO4)2.2H2O (250 mg) in distilled water (1,000 mL)].
Water or a 0.01, 0.1, 1 or 100 μM specific α-ketol fatty acid (1A) aqueous solution was sprayed to the cultured system in an amount of 0.1 mL/plant, then the plants were treated by darkness (for 13.5 hours).
Thereafter, the morning glory was grown under continuous light irradiation at 25° C. for 14 days, and on the 14th day the number of the flower buds was measured.
The results of eight specimens of morning glory were averaged.

[2] = Evaluation of stability: decomposition over time of the diluted aqueous solution, analyzed by HPLC; format: physicochemical; settings: 16 mM ethanol solution diluted by water 30-fold, extended standing, HPLC (FIG. 3)
Description: The stability of the specific α-ketol fatty acid derivative (1A) was evaluated as follows. A 16 mM ethanol solution of the derivative (1A) was diluted by water 30-fold. This diluted solution was allowed to stand for an extended period at each of the temperatures of 4° C., 25° C. and 50° C. The extent of decomposition over time was analyzed by HPLC (column: CAPCELL PAK C-18 UG120, 4.6×250 mm, solvent: 50% acetonitrile+0.1% trifluoroacetic acid, flow rate: 1 ml/min, wavelength: 210 nm). For comparison, a solution prepared by similarly diluting the specific α-ketol fatty acid derivative (2A) was allowed to stand for an extended period at each of 25° C. and 50° C. The extent of decomposition was similarly investigated.

[3] = test system: morning glory (variety: murasaki); settings: from Japanese Patent Publication (A) No. 11-29410; cited from earlier work

| SMILES | optimum concentration relative to the optimum concentration of (2A) ([1]; 1 μM versus 100 μM) | number of flower buds formed, increase ([1]; 0.01-100 μM aqueous solution sprayed 0.1 mL/plant, darkness 13.5 hours, counted on 14th day, average of eight specimens, water 1.25 buds/plant (FIG. 2)) [%] | optimum concentration for flower bud formation ([1]; morning glory, sprayed aqueous solution, FIG. 2) [µM] | stability at 4° C. compared with 25° C. and 50° C. ([2]; 4° C.) | stability compared with (2A) ([2]; 25° C.) | stability compared with (2A) ([2]; 50° C.) | optimum concentration for flower bud formation [3] [µM] |
| --- | --- | --- | --- | --- | --- | --- | --- |
| CCC(O)C(O)C/C=C\CC(=O)C(O)CCCCCCCC(=O)O (stereo not shown) [compound (1A), 9,15,16-trihydroxy-10-oxo-12(Z)-octadecenoic acid] | 1/100 | ≥ 200 | 1 | far superior in stability | superior in stability | superior in stability | – |
| CC/C=C\C/C=C\CC(=O)C(O)CCCCCCCC(=O)O (stereo not shown) [compound (2A), 9-hydroxy-10-oxo-12(Z),15(Z)-octadecadienoic acid] | – | – | – | – | – | – | 100 |

Reference: patent US7544821B2, “α-Ketol unsaturated fatty acid derivative and plant growth regulating agent using same” (Shiseido Company, Ltd., priority 2004, dated 2009)
